This series has as its system Rice (Oryza sativa) 'Taggart'. The conditions noted are these: PRE, direct-seeded flooded rice. As for the experimental part:
Rice (Oryza sativa) crop varieties (‘Cybonee’, ‘Jupiter’, and ‘Taggart’) and red rice (Oryza sativa) were planted in 6 inch plastic pots containing sterile top soil. Eight to ten seeds of each species were seeded at 12 o'clock, 3 o'clock, 6 o'clock or 9 o'clock around the pot. The pots were watered after planting. […] The test solutions were applied using a compressed air track spray chamber at 30 gallons per acre using a Teejet 8001E nozzle at 40 PSI, three replicates per test rate. After treatment, the pots were watered lightly and transferred to trays in a greenhouse. After the plants were two inches in height the trays were flooded with water and maintained as such for 14 days. The trays were emptied of water and the pots were maintained by regular watering for 4 more days. At 14, 21 and 28 days after treatment (DAT) the plants were evaluated versus untreated control pots containing the same rice and weeds using a scale of 0% (no control) to 100% (complete plant death).

Like-named read-outs stand apart in the source and are kept apart here.

`CS(=O)(=O)c1ccc(C(=O)C2C(=O)CCCC2=O)c([N+](=O)[O-])c1` [Mesotrione, mesotrione]: the “Percent rice injury Taggart” value was determined as 4 B % (14 DAT, 12.5 g ai/ha); 1 B % (14 DAT, 25 g ai/ha); 4 B % (14 DAT, 37.5 g ai/ha); 7 B % (14 DAT, 50 g ai/ha); 12 B % (14 DAT, 62.5 g ai/ha); 12 B % (14 DAT, 75 g ai/ha). The “Percent rice injury Taggart” value reads like this: (14 DAT, 87.5 g ai/ha) 19 B %; (14 DAT, 100 g ai/ha) 18 B %; (21 DAT, 12.5 g ai/ha) 1 D %; (21 DAT, 25 g ai/ha) 1 D %; (21 DAT, 37.5 g ai/ha) 1 D %; (21 DAT, 50 g ai/ha) 6 D %. Besides, the “Percent rice injury Taggart” value came out at 10 CD % (21 DAT, 62.5 g ai/ha); 25 BCD % (21 DAT, 75 g ai/ha); 35 BC % (21 DAT, 87.5 g ai/ha); 38 B % (21 DAT, 100 g ai/ha); 2 C % (28 DAT, 12.5 g ai/ha); 4 C % (28 DAT, 25 g ai/ha). Moreover, the “Percent rice injury Taggart” value is recorded as 4 C % (28 DAT, 37.5 g ai/ha); 9 C % (28 DAT, 50 g ai/ha); 9 C % (28 DAT, 62.5 g ai/ha); 29 BC % (28 DAT, 75 g ai/ha); 42 AB % (28 DAT, 87.5 g ai/ha); 53 AB % (28 DAT, 100 g ai/ha).
